Data as given in US7608577B2, “Peptidyl ketones as inhibitors of DPIV” (OSI Pharmaceuticals, Inc., priority 2001, dated 2009).

Assays:
[1] = target: T1, Prolidase from porcine kidney (Sus scrofa, UniProt A0A5G2QQV1); test: Cross reacting enzymes: prolidase; format: biochemical; details: substrate Ile-Pro-OH, pH 7.6
T1 sequence (A0A5G2QQV1 1-463): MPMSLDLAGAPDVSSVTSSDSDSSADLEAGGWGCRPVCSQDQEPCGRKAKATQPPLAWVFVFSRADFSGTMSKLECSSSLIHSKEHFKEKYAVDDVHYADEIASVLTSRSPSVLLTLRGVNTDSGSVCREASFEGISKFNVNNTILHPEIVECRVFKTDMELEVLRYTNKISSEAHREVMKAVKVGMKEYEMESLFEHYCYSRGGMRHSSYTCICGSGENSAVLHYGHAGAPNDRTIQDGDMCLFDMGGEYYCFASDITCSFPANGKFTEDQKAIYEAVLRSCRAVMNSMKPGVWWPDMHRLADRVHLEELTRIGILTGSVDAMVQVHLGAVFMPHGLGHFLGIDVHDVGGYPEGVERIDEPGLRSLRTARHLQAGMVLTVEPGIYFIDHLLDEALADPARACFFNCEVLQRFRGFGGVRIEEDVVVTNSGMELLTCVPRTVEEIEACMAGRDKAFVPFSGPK
Experimental: Prolidase from porcine kidney (ICN Biomedicals, Eschwege, Germany) was solved (1 mg/ml) in assay buffer (20 mM NH4(CH3COO)2, 3 mM MnCl2, pH 7.6). In order to get a fully active enzyme the solution was incubated for 60 min at room temperature.
450 μl solution with the test compounds in an concentration range of 5*10^−3 M-5*10^−7 M were admixed with 500 μl buffer solution (20 mM NH4(CH3COO)2, pH 7.6) and 250 μl Ile-Pro-OH (0.5 mM in the assay mixture). The assay mixture was pre-incubated at 30° C. for 5 min. After pre-incubation, 75 μl Prolidase (1:10 diluted in assay buffer) was added and measurement was performed at 30° C. and λ=220 nm for 20 min using a UV/Vis photometer, UV1 (Thermo Spectromc, Cambridge, UK).
The IC 50-values were calculated using Graphit 4.0.15 (Erithacus Software, Ltd., UK).

[2] = target: T2, Angiotensin-I converting enzyme (ACE) (Oryctolagus cuniculus, UniProt P12822); test: Cross reacting enzymes: ACE; format: biochemical; details: Sigma enzyme A-6778
T2 construct: purchased Sigma A-6778
T2 sequence (P12822 34-1310): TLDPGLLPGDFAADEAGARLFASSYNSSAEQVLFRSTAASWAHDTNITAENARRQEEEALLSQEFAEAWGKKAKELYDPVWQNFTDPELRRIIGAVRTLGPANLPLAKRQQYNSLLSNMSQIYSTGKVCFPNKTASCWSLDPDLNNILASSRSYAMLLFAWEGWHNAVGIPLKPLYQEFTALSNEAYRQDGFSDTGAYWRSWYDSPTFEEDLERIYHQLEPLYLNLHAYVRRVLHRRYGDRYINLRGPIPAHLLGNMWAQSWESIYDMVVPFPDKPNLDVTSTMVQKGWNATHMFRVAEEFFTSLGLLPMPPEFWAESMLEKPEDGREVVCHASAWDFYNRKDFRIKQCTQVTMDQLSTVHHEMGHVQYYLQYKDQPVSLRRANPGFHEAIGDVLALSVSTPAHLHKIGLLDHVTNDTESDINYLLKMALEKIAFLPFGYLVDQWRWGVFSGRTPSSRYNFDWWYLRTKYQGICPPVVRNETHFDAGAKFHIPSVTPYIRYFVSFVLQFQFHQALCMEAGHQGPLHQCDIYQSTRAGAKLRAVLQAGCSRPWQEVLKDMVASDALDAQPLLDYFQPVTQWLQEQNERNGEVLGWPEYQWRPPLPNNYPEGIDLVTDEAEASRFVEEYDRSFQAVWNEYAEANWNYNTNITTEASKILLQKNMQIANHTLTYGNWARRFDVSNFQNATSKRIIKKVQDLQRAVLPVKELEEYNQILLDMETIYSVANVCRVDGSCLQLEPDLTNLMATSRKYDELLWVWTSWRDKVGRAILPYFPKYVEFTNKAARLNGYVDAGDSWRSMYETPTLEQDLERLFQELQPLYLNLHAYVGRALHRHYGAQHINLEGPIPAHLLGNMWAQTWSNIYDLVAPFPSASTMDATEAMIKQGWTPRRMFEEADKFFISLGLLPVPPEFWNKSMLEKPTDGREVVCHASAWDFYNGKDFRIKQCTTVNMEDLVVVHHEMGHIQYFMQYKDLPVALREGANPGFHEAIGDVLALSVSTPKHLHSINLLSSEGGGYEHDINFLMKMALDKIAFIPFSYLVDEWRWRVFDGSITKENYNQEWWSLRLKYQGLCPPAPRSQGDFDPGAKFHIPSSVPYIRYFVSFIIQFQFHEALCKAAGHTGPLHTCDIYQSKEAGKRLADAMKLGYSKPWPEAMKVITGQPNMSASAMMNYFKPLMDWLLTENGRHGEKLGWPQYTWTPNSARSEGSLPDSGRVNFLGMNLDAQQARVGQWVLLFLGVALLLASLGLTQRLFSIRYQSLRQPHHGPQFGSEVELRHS
Experimental: For IC50 determination of ACE an enzyme produced by Sigma was used (Prod. No. A-6778). The assay procedure and calculation of activity described by the manufacturer was adapted to half of the described volumes.
The IC50-values were calculated using Graphit 4.0.15 (Erithacus Software, Ltd., UK).

Row | Prolidase IC50 [1] | ACE IC50 [2] | IC50 [1] [µM] | SMILES
1 | no inhibition | no inhibition | – | Br.CC(=O)OCC(=O)[C@@H]1CCCN1C(=O)[C@@H](NC(=O)[C@H](C)N)C(C)C [H-Ala-Val-Pro-CH2O—CO—CH3*HBr, 2-[(Acetyloxy-methyl)carbonyl]-1-N-[(L)-Alanyl-(L)-Valinyl]-(2S)-pyrrolidine hydrobromide]
2 | – | no inhibition | 414 | Br.CC(C)[C@H](NC(=O)[C@H](C)N)C(=O)N1CCC[C@H]1C(=O)COC(=O)c1ccccc1 [H-Ala-Val-Pro-CO—CH2O—CO—Ph*HBr, 2-[(Benzoyloxy-methyl)carbonyl]-1-N-[{(L)-Alanyl}-(L)-Valinyl]-(2S)-pyrrolidine hydrobromide]
3 | – | no inhibition | 413 | Br.CC(=O)[C@@H]1CCCN1C(=O)[C@@H](NC(=O)[C@H](C)N)C(C)C [H-Ala-Val-Pro-Me*HBr, 2-Methylcarbonyl-1-N-[(L)-Alanyl-(L)-Valinyl]-(2S)-pyrrolidine hydrobromide]
